One data set has as its system Mus musculus. In words: Upregulation of plasma EPO level in Balb/c mouse at 10 mg/kg, po administered as single dose measured after 8 hrs by ELISA. The class given is functional. In general terms: ELISA stands for enzyme-linked immunosorbent assay.
Data set [1] has as its system Rattus norvegicus. In words: Toxicity in CD(SD) rat assessed as induction of anorexia at 100 mg/kg, po administered as single dose. The note with it: in vivo. It is filed as organism-based.
The nature of another data set: in vitro. Conditions: human, Caco-2.
The test system of data set [2] is Rattus norvegicus. In words: Upregulation of plasma EPO level in CD(SD) rat at 10 mg/kg, po administered as single dose measured after 8 hrs by RIA. The class given is functional.

In general, Papp A→B refers to the apparent permeability from the apical to the basolateral side of a cell layer. A higher Papp A→B goes with ready permeation. For `O=C(O)CNC(=O)c1c(O)cc(-c2cccc(Cl)c2)n2ncnc12`, the results for the Activity in the data set with Mus musculus, in the data set on Rattus norvegicus [1] and with Rattus norvegicus [2] were greater than 15000 pg/mL, “Toxic” and 7900 pg/mL, respectively. The Papp A→B at 2 h, 25 µM in the data set “in vitro” was 6.1 ×10⁻⁶ cm/s.
In the case of `CCCCCc1cn2ncnc2c(C(=O)NCC(=O)O)c1O.Cl`, in the data set on Mus musculus, the Activity is less than 330 pg/mL. The compound further showed a Papp A→B at 2 h, 25 µM in the data set “in vitro” of 15 ×10⁻⁶ cm/s.
Consider `Cl.O=C(O)CNC(=O)c1c(O)ccc2ncnn12`, for which the Papp A→B at 2 h, 25 µM in “in vitro” stood at 0.4 ×10⁻⁶ cm/s.
In the case of `CCc1c(O)c(C(=O)NCC(=O)O)c2ncnn2c1CC.Cl`, the Activity in the data set with Mus musculus is 1100 pg/mL. The same compound gave an apical-to-basolateral permeability (Papp A→B) at 2 h, 25 µM in “in vitro” of 9.3 ×10⁻⁶ cm/s.
The matching figures for `Cl.O=C(O)CNC(=O)c1c(O)cc(C2CCCCC2)c2ncnn12`: less than 450 pg/mL and 18 ×10⁻⁶ cm/s.
For `CCCc1cc(O)c(C(=O)NCC(=O)O)c2ncnn12.Cl`, in that order: less than 300 pg/mL and 2.1 ×10⁻⁶ cm/s.
The matching figures for `Cl.O=C(O)CNC(=O)c1c(O)cc(CCc2ccccc2)c2ncnn12`: less than 320 pg/mL and 9.3 ×10⁻⁶ cm/s.
On to `Cl.O=C(O)CNC(=O)c1c(O)cc(C2CCCCC2)n2ncnc12`, for which the Activity in the data set with Mus musculus is 540 pg/mL. For the same compound, the Papp A→B at 2 h, 25 µM in the data set “in vitro” was found to be 21 ×10⁻⁶ cm/s.
In turn, `Cl.O=C(O)CNC(=O)c1c(O)ccn2ncnc12` gave a Papp A→B at 2 h, 25 µM in “in vitro” of 0.86 to 0.9 ×10⁻⁶ cm/s.
Still for that read-out and setting: as for `O=C(O)CNC(=O)c1nc(Cl)c2ccccc2c1O`, the figure is 63 ×10⁻⁶ cm/s.

For the origin of these results see ChEMBL document CHEMBL4138259, “Discovery of JTZ-951: A HIF Prolyl Hydroxylase Inhibitor for the Treatment of Renal Anemia” (ACS Med Chem Lett, 2017).
